# Where two headings read alike, the source gives them in different places.
# Assays:
# [1] = set-up: method as in PMID 31689937; conditions: intraperitoneal administration in mice; cited from earlier work
# [2] = test system: α-synuclein PFF-treated mice cortical neurons; assay: PFF-induced neurotoxicity in cortical neurons, CCK-8 assay; type: cell-based, mouse; conditions: CCK-8, 14 days PFF, 1 μM every 2 days
# Method: Figure 2 PCiv prevents α-synuclein aggregation in vitro and in cultured neurons with PFF treatment. (A) Representative Western blots showing the degree of recombinant α-synuclein (αSyn) aggregation in a test tube in the presence or absence of PCiv (100 μM) at the indicated incubation duration (phosphate-buffered saline [PBS], 37 °C for 3 or 5 days). Aggregation of α-synuclein was determined using α-synuclein antibody. (B) Quantification of the relative amount of α-synuclein aggregate in high molecular weight sizes in panel A (n = 3 per group). (C) Representative immunofluorescence of MAP2 and Lewy-like inclusion marker pS129-αSyn in mice cortical neurons treated with α-synuclein preformed fibril (PFF) (1 μg, for 14 days). […] (D) Quantification of pS129-αSyn immunofluorescence signal intensities in MAP2-positive cortical neurons in each experimental group (n = 15 cells from three separate experiments). (E) Cell viability assessment in the indicated experimental groups was monitored by CCK-8 assay (n = 3 per group). The data are expressed as means ± SEMs. * p < 0.05, ** p < 0.01, *** p < 0.001, and **** p < 0.0001, ANOVA test followed by Tukey’s post hoc analysis.
# CD1 mice were purchased from Orient Co. for use in the mouse primary neuron culture. […] The optical value was read at 450 nm using a multi-detection microplate reader (Synergy, BioTek Instruments Inc., Winooski, VT, USA).
# [3] = Rat tissue distribution 15 min after intravenous bolus; type: in vivo; conditions: rats; for Kp at 15 min: Sprague-Dawley, rat, brain
# Method: Figure 3 Pharmacokinetic analysis and tissue distribution of PCiv. (A) Pharmacokinetic analysis of blood PCiv levels at each indicated time point following intravenous or oral administration of PCiv (10 mg/kg) determined by ultra-performance liquid chromatography (n = 4 rats for oral and 5 rats for intravenous administration). (B) Quantification of PCiv levels in each indicated tissue (ng/g tissue weight) determined by ultra-performance liquid chromatography (n = 3 rats, tissues collected 15 min after intravenous PCiv administration (10 mg/kg). PCiv was dissolved in a vehicle (DMSO:PEG400:saline ratio of 5:70:25) for solubilization. The quantified data are expressed as means ± standard deviations.
# In vivo rat pharmacokinetic studies were performed for intravenous and oral administration of PCiv as previously reported. Sprague-Dawley rats (8 weeks old, 260–280 g) were purchased from Orient Bio Inc. (Seongnam, Korea). Rats were maintained with free access to food and water under a 12:12 h light/dark cycle for 1 week. For pharmacokinetic studies, under anesthetic conditions (20 mg/kg tiletamine/zolazepam [Zoletil; Vibrac Laboratories, Carros, France] administered intramuscularly), the femoral vein and artery were surgically cannulated using polyethylene tubing (PE50; Clay Adams, Parsippany, NJ, USA) in fasted rats. Then, PCiv was administered intravenously and orally at a dose of 10 mg/kg (n = 4–5). The drug was dissolved in a vehicle (DMSO:PEG400:saline at a ratio of 5:70:25). Blood samples (approximately 100 μL) were collected at predetermined time points (0, 1, 5 (intravenous administration only), 15, 30, 60, 120, 180, 240, 360, and 480 min) after drug administration. […] The PCiv level was determined using a CapcellpakTM C18 5 μm column (250 × 1.5 mm, Shiseido Fine Chemical Co., Tokyo, Japan), as previously described. […] The tissue concentration levels were calculated as the PCiv amount (ng) per gram of organ weight.
smiles,measurement,setting,value
"C/C=C(\C)C(=O)O[C@@H]1c2c(ccc3ccc(=O)oc23)OC(C)(C)[C@H]1OC(C)=O (relative stereo) [PCiii, peucedanocoumarin III]",brain distribution,[1],demonstrated brain distribution
same,PFF-induced neurotoxicity (neuron viability),[2],prevented
"C/C=C(\C)C(=O)O[C@H]1[C@H](OC(C)=O)c2c(ccc3ccc(=O)oc23)OC1(C)C (relative stereo) [PCiv, trans-4′-acetyl-3′-tigloylkhellactone]",Kp at 15 min,"[3]; 15 min after intravenous 10 mg/kg, read-out: brain tissue-to-plasma concentration ratio",6.4
same,Kp at 15 min,"[3]; intravenous, 10 mg/kg, read-out: distribution to target organ compared with the plasma concentration",6.4
same,"tissue-to-plasma concentration ratio, liver and kidneys",[3]; 15 min after intravenous 10 mg/kg,low
same,PFF-induced neurotoxicity (neuron viability),[2],prevented

# Source: publication PMC9369442, “Synthetic Peucedanocoumarin IV Prevents α-Synuclein Neurotoxicity in an Animal Model of Parkinson’s Disease” (International Journal of Molecular Sciences, 2022)
